Experimental data published in patent US20090099102A1, “Ginkgolides in the Treatment and Prevention of Ovarian Cancer” (priority 2005, published 2009).
Entries after “also recorded” stand apart in the source; their conditions may differ.

Assays:
[1] = 10 young healthy volunteers; single oral dose of 80 mg Ginkgo biloba (EGb 761 formula); cited from earlier work
OVCA429 cells [2] = assay: Cell cycle analysis (propidium iodide flow cytometry), OVCA429; format: cell-based, human; settings: for S-phase DNA contents / G0/G1 phase DNA: OVCA429, 100 μM; for cell cycle effect: serous type cancer cells
Procedure: (§1) For the cell cycle analysis, ovarian cells were plated in 75 cm^2 flasks and treated with 100 μM of ginkgolide A and B; the control was treated with an equal amount of DMSO. After 24 and 48 hours, cells were harvested by trypsin digestion and followed by PBS washing and spun for 5 min at room temperature at 12,000 rpm. Cells were fixed with 70% ethanol (in PBS buffer) by suspending the cell pellet and incubated at room temperature for 5 minutes or at −20° C. for two days. The fixed cells were washed once with PBS and then treated with RNase A (50 ug/ml) at 37° C. for 30-60 min. After a single washing with PBS to remove RNase A, propidium iodide (25 μg/ml in PBS buffer) was added. Cells were subjected to analysis using a FACS Calibur Flow Cytometer (Becton Dickson, San Jose, Calif.). Each experiment was repeated at least three times and the cell cycle profiles and data were analyzed by ModFit LT software (Verity Software House, Inc., Topsham, Me.).

HOSE-E6E7 cells [3] = assay: Cell proliferation (MTT) assay, HOSE-E6E7 cells; format: cell-based, human; settings: 10, 50 and 100 μM (extract: equivalent of ginkgolides), 72 h
Procedure: Immortalized normal human ovary epithelial cell (HOSEE6E7) and a serous type ovarian cancer cell lines ([…]) previously established in our laboratory (Tsao, et al., Exp. Cell Res. 218:499-507 (1995); Kim, et al., Jama 287:1671-1679 (2002)) were used in this study. Two mucinous ovarian cancer cell lines (RMUG-S and RMUG-L) were purchased from The Japanese Collection of Research Bioresource (Tokyo, Japan). RMUG-L cells were cultured in MCDB105/M199 medium as above, and RMUG-S cells were cultured in F-12 medium with 10% Fetal Bovine Serum and 1% antibiotic as above. Cells were maintained at 37° C. under 5% CO2 and 95% air in a high humidity chamber. Monolayer cells at 60-80% confluence were enzymatically removed using trypsin/EDTA and plated in 96 well flat-bottomed plates at concentration of 5×10^3 per well for HOSE-E6E7 cells, 1×10^3 per well for OVCA429 and RMUG-L, respectively. Treatments were added 24 hours after plating. […]
Methods for the cell proliferation and viability assays were adopted from MTT (Mosmann, J. Immunol. Methods 65:55-63 (1983), XTT (Scudiero et al., Cancer Res. 48:4827-4833, (1988)) and MTS (Cory, et al., Cancer Commun. 3: 207-212 (1991)), which developed as WST-1 (Roche Applied Science, Germany). Briefly, the tetrazolium salts are cleaved to formazan by cellular enzymes. An expansion in the number of viable cells results in an increase in the overall activity of mitochondrial dehydrogenases in the sample. This augmentation in enzyme activity leads to an increase in the amount of formazan dye formed, which directly correlates with the number of metabolically active cells in the culture. […] One hour after the addition of the solubilization solution, the contents of the wells were mixed and read by the 96-well plate scanning spectrophotometer (μQuant) and quantitative software (KC-junior, Bio-Tek Instruments, Inc.) at an absorbance of 630 nm for quantitative analysis. […] The cell proliferation rate was expressed as a percentage of the control, which had been treated with an equivalent volume of DMSO (as 100%). […]

OVCA429 cells [4] = assay: Cell proliferation (MTT) assay, serous cancer cells OVCA429; format: cell-based, human; settings: for cell proliferation compared to the control treatments: p<0.0001; for inhibitory pattern in ovarian cancer cells (discussion): cell line not given
Procedure: (§2) Immortalized normal human ovary epithelial cell (HOSEE6E7) and a serous type ovarian cancer cell lines (OVCA433) previously established in our laboratory (Tsao, et al., Exp. Cell Res. 218:499-507 (1995); Kim, et al., Jama 287:1671-1679 (2002)) were used in this study. Two mucinous ovarian cancer cell lines (RMUG-S and RMUG-L) were purchased from The Japanese Collection of Research Bioresource (Tokyo, Japan). RMUG-L cells were cultured in MCDB105/M199 medium as above, and RMUG-S cells were cultured in F-12 medium with 10% Fetal Bovine Serum and 1% antibiotic as above. Cells were maintained at 37° C. under 5% CO2 and 95% air in a high humidity chamber. Monolayer cells at 60-80% confluence were enzymatically removed using trypsin/EDTA and plated in 96 well flat-bottomed plates at concentration of 5×10^3 per well for HOSE-E6E7 cells, 1×10^3 per well for OVCA429 and RMUG-L, respectively. Treatments were added 24 hours after plating. Ten mM stock solutions of Ginkgo biloba, quercetin, kaempferol, ginkgolide A, and ginkgolide B, were prepared in DMSO and cells were treated with 10, 50 and 100 μM concentrations of each component. Concentration of standard Ginkgo biloba treatment was calibrated according to the fact that, the standard Ginkgo biloba mixture contains about 4-6% of total active terpene lactons, and the estimated average of the molecular weight of the mixture is about 300. An equal volume of DMSO (less than <1% concentration) was used as control treatment.
(§3) Methods for the cell proliferation and viability assays were adopted from MTT (Mosmann, J. Immunol. Methods 65:55-63 (1983), XTT (Scudiero et al., Cancer Res. 48:4827-4833, (1988)) and MTS (Cory, et al., Cancer Commun. 3: 207-212 (1991)), which developed as WST-1 (Roche Applied Science, Germany). Briefly, the tetrazolium salts are cleaved to formazan by cellular enzymes. An expansion in the number of viable cells results in an increase in the overall activity of mitochondrial dehydrogenases in the sample. This augmentation in enzyme activity leads to an increase in the amount of formazan dye formed, which directly correlates with the number of metabolically active cells in the culture. After 72 hours of treatment, 15 μl of the MTT dye solution was added to each well and the plates were incubated at 37° C. for 4 hours in a humidified chamber. After incubation, 100 μl of the Solubilization/Stop solution was added to each well. One hour after the addition of the solubilization solution, the contents of the wells were mixed and read by the 96-well plate scanning spectrophotometer (μQuant) and quantitative software (KC-junior, Bio-Tek Instruments, Inc.) at an absorbance of 630 nm for quantitative analysis. Data was collected from at least 3 separate experiments, and at least 8 repeats were performed for each individual treatment. The cell proliferation rate was expressed as a percentage of the control, which had been treated with an equivalent volume of DMSO (as 100%).
Logistic regression analysis was used to calculate the exposure odds ratio to estimate the relative risk (RR) for ovarian cancer associated with the use of any or a particular type of herbal remedy. Adjustment variables included age, study center, oral contraceptive (OC) use, parity, and Jewish ethnic background. Additionally, we adjusted individually for categories of consumption of vitamin A, carotene, tomatoes and tomato sauce and juice, and raw carrots based upon previous work showing the importance of these foods and vitamins on ovarian cancer risk in our data (Cramer, et al., Int. J. Cancer 94:128-134 (2001)). For the data from the cell proliferation assay, linear regression models were applied to analyze mean OD values from the MTT assays across the different concentration treatments, adjusted for individual experiments. We used a partial F test to determine whether mean OD levels varied across the four concentrations (control, 10, 50, 100 μM). […]

HOSE-E6E7 cells [5] = assay: Cell cycle analysis, HOSE-E6E7; format: cell-based, human; settings: 100 μM, 24 h
Procedure: as §1

RMUG-L cells [6] = assay: Cell proliferation (MTT) assay, mucinous cancer cells RMUG-L; format: cell-based, human; settings: 10, 50 and 100 μM (extract: equivalent of ginkgolides), 72 h
Procedure: as §2, §3
Logistic regression analysis was used to calculate the exposure odds ratio to estimate the relative risk (RR) for ovarian cancer associated with the use of any or a particular type of herbal remedy. Adjustment variables included age, study center, oral contraceptive (OC) use, parity, and Jewish ethnic background. […]

smooth muscle cell = settings: related to G1 to S phase blockage; cited from earlier work
RMUG-S cells = assay: Cell cycle analysis, RMUG-S; format: cell-based, human; settings: after treatment
Procedure: as §1

RMUG-L cells [7] = assay: Cell cycle analysis, RMUG-L; format: cell-based, human; settings: 48 h
Procedure: as §1

[8] = 48 h, control 43% (ginkgolide B), 36.5% (ginkgolide A)
[9] = 48 h, control 47.9% (ginkgolide B), 50.7% (ginkgolide A)

SMILES | average concentration measured [1] | S-phase DNA contents (OVCA429 cells [2]; [8]) | G0/G1 phase DNA (OVCA429 cells [2]; [9]) | cell cycle effect (OVCA429 cells [2]) | effect on cell proliferation (words) (HOSE-E6E7 cells [3]) | cell proliferation compared to the control treatments (OVCA429 cells [4]; OVCA429, 50 and 100 μM, 72 h) | inhibitory pattern in ovarian cancer cells (discussion) (OVCA429 cells [4]) | effect on DNA content of G0/G1, S and G2/M phases (HOSE-E6E7 cells [5]) | effect on cell proliferation (words) (RMUG-L cells [6]) | effect on cell proliferation (words) (RMUG-L cells [6]; listed as Ginkgolide A) | inhibition of smooth muscle cell proliferation (smooth muscle cell) | changes in G0/G1, S-phase and M-phase DNA distribution (RMUG-S cells) | S-phase DNA contents (OVCA429 cells [2]; 24 h, control 43%) | G0/G1 phase DNA (OVCA429 cells [2]; 24 h, control 47.9%) | S-phase DNA (RMUG-L cells [7]; control 28.7%) | G0/G1 phase DNA (RMUG-L cells [7]; control 57%) | cell proliferation compared to the control treatments (OVCA429 cells [4]; OVCA429, 10, 50 and 100 μM, 72 h) | effect on cell proliferation, exception to 'little effect' (OVCA429 cells [4]; OVCA429, 50 and 100 μM) | effect on cell proliferation (words) (OVCA429 cells [4]; OVCA429, 10, 50 and 100 μM (extract: equivalent of ginkgolides), 72 h)
C[C@@H]1C(=O)O[C@H]2C[C@@]34[C@H]5C[C@@H](C(C)(C)C)[C@]36[C@@H](OC(=O)[C@@H]6O)O[C@@]4(C(=O)O5)[C@]21O [ginkgolide A] | 15 ng/mL | 10.3% | 86.1% | cell cycle blockage at G0/G1 to S phase checking point | little effect | about 60% | significant inhibitory pattern | neither ginkgolide A nor ginkgolide B (100 μM) showed a significant effect | no effect | little effect |  |  |  |  |  |  |  |  | 
CC1C(=O)OC2C(O)C34C5CC(C(C)(C)C)C36C(OC(=O)C6O)OC4(C(=O)O5)C12O (stereo not shown) [ginkgolide B] | 4 ng/mL | 24% | 65.1% | cell cycle blockage at G0/G1 to S phase checking point | little effect |  | significant inhibitory pattern | neither ginkgolide A nor ginkgolide B (100 μM) showed a significant effect | little effect; also recorded: no effect |  | inhibit smooth muscle cell proliferation in a concentration dependent manner | no observed changes | 35.8% | 51.5% | 40.9% | 44% | about 60% |  | 
O=c1c(O)c(-c2ccc(O)c(O)c2)oc2cc(O)cc(O)c12 [quercetin, reference compound] |  |  |  |  | little effect |  | significant inhibitory pattern |  | little effect |  |  |  |  |  |  |  |  | OVCA429 with 50 and 100 μM quercetin | 
O=c1c(O)c(-c2ccc(O)cc2)oc2cc(O)cc(O)c12 [kaempferol, reference compound] |  |  |  |  |  |  |  |  | little effect |  |  |  |  |  |  |  |  |  | little effect
